US20120046329A1, “MODULATORS OF NOD1 AND NOD2 SIGNALING, METHODS OF IDENTIFYING MODULATORS OF NOD1 AND NOD2 SIGNALING, AND USES THEREOF” (Sanford-Burnham Medical Research Institute, priority 2010, published 2012)
Converted amounts (≈) assume the structure as drawn. Read-outs that look alike come from different tables or passages of the source.

Columns and labels:
NOD2 [1] = molecular target: T1, NOD2 (Homo sapiens, UniProt Q9HC29); test: MDP-induced IL-8 secretion in MCF-7/NOD2 cells; settings: MCF-7 cells, ELISA
T1 sequence (Q9HC29 whole entry): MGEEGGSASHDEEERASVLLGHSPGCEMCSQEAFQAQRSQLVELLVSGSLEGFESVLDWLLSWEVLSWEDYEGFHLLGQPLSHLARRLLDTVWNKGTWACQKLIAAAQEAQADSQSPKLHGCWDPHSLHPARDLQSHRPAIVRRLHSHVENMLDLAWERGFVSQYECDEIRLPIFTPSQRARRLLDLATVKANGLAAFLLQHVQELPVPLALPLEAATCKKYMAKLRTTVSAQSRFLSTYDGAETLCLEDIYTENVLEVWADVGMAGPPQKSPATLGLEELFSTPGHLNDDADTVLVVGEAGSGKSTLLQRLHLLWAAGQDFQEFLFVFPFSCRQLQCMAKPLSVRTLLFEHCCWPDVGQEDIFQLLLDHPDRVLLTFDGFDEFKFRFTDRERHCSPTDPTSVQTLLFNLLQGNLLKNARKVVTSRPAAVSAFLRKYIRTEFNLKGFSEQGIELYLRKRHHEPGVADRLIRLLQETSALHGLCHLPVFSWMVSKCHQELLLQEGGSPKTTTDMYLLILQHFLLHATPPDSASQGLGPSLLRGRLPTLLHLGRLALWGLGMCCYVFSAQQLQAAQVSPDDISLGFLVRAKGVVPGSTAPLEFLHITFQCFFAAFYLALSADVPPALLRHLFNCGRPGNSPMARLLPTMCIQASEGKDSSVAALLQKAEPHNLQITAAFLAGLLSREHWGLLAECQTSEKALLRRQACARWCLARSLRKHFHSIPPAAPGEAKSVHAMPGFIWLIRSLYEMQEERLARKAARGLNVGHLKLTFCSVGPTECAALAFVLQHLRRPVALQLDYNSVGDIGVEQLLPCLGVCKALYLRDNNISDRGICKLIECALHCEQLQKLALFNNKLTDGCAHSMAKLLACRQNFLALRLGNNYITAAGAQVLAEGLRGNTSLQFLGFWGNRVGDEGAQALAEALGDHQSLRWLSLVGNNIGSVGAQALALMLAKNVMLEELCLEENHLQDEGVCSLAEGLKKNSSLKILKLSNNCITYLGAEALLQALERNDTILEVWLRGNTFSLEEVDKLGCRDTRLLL

[2] = Microsomal stability, human; type: in vitro ADME
[3] = In vivo RACE assay (pharmacokinetics, IP dosing); set-up: species or system wild type mice; settings: mice
Text: In vivo RACE assay data was obtained for compound 1:
in conjunction with quantitative bioanalytical analysis to test its pharmacokinetics in wild type mice. […]

[4] = Solubility in aqueous buffer
[5] = system: Fa2N-4 immortalized human hepatocytes; test: Toxicity towards Fa2N-4 immortalized human hepatocytes; type: cell-based
inflammasome = test: IL-1β secretion ELISA in RAW264.7 cells, inflammasome activators; type: cell-based, mouse; settings: RAW264.7, 5 μM
Text: Supernatants were collected after either 2 hrs (Salmonella infection) or 4 hrs (all others) and IL-1β levels were quantified by ELISA (mean+SD; n=3).
Many NLRs form complexes with caspase-1, creating so-called “inflammasomes” responsible for proteolytic processing of inflammatory cytokine interleukin 1-beta (IL-1β). […] (FIGS. 1D and 1G), indicating a lack of promiscuity towards other NLRs.
ELISA: For IL-8 ELISA, MCF7 cells stably expressing His6-FLAG-tagged NOD1 or NOD2 were produced by lentivirus infection. Cells were cultured up to 90% confluency. Assays were initiated using 5,000 cells per well (in 100 μl volume) of a 96-well transparent culture plate. […] Supernatants were collected into a new 96-well plate and stored at −80° C. IL-8 levels were measured using a human IL-8 ELISA (BD OptEIA™ Human IL-8 ELISA Set, BD Biosciences). For IL-1β ELISA, assays were initiated using 50,000 RAW264.7 cells per well (in 100 μl of Opti-Mem medium, Invitrogen) of a 96-well transparent culture plate. Cell treatments were performed as indicated. IL-1β levels were measured using mouse IL-1 beta ELISA Ready-Set-Go!™ Kit (E-Biosciences).

NOD2 [6] = molecular target: T1, NOD2; test: MDP-stimulated (NOD2-dependent) NF-κB reporter assay; settings: reporter cell lines with low and overexpressed NOD2
[7] = system: interferon response stimuli (RIG-I/MDA-5, IRF3); test: ISRE-driven luciferase reporter in HEK293T, poly(I:C), poly(dA:dT), Sendai virus; settings: 5 μM

## Cc1ccc(S(=O)(=O)n2c(N)nc3ccccc32)cc1 [Compound 1]
NOD2 [1]
  Activity on MDP induced (NOD2) mediated IL-8 release (in words): inactivity
[2]; Human, 1 hr
  Microsomal Stability (% Remaining at 1 hr): 41.78 % Remaining
[2]; human
  Stability in microsomes (in words): moderate
[3]; IP
  Tolerability: well tolerated
[3]; IP 15 mg/kg
  Concentration (uM) 20 min: 1.58 ± 0.06 µM
  Concentration (uM) 120 min: 0.12 ± 0.05 µM
[3]; IP 30 mg/kg and 15 mg/kg, T=20 min
  Compound exposure (in words): significant compound exposure
[3]; IP 30 mg/kg
  Concentration (uM) 20 min: 5.24 ± 0.62 µM
  Concentration (uM) 120 min: 0.54 ± 0.04 µM
[4]; aqueous buffer, pH 6.2, aqueous buffer
  Solubility: 1.7 µg/mL (≈ 5.92 µM)
[4]; pH 5.0, aqueous buffer
  Solubility: 2.0 µg/mL (≈ 6.96 µM)
[4]; pH 7.4, aqueous buffer
  Solubility: 2.0 µg/mL (≈ 6.96 µM)
[4]; three pH levels
  Solubility (in words): low
[5]
  Toxicity (LD50, μM): > 50 µM
[5]; listed as MLS-0350096
  Toxicity (LD50, μM): >50 µM
inflammasome
  Effect on IL-1β secretion induced by inflammasome activators: did not inhibit
NOD2 [6]
  Inhibition of MDP stimulated (NOD2-dependent) signaling: not inhibiting
Permeability; pH 5.0
  Permeability: 491 ×10⁻⁶ cm/s
Permeability; pH 6.2
  Permeability: 562 ×10⁻⁶ cm/s
Permeability; pH 7.4
  Permeability: 382 ×10⁻⁶ cm/s
Permeability; three pH levels
  Permeability (in words): high
[7]
  Effect on ISRE-driven reporter gene activity induced by other interferon response stimuli: no inhibition
